The text below walks through data of ChEMBL document CHEMBL3507680, “University of Dundee, Gates Library screen for HepG2 cell viability”.

This data set is described as follows: Human HepG2 cell viability assay in 384 well format. The settings on record: HepG2 cells, read-out: Inhibition. The data set is classed as toxicity, cell-based. Also noted: dose 125 nL, time 70.5 hour; concentration not given beside the values.
For the compound `CN(C)C(=O)CN1CCC2(CCN(C(=O)N(C)C)CC2)C1=O`, the cytotoxicity at 70.5 h stood at 17%.

As to `CCOCC(=O)N1CCCC2(CCN(c3ccccc3)C2=O)C1` (stereo unspecified), the cytotoxicity at 70.5 h was -8.08%.

As for `CN1C(=O)CCC12CCN(Cc1ccco1)CC2`, the cytotoxicity at 70.5 h was -12.2%.

As to `CC(C)NC(=O)N1CCCC2(CCN(c3ccccc3)C2=O)C1` (stereo unspecified), the cytotoxicity at 70.5 h is -7.73%.

For the compound `O=C(c1ccc[nH]1)N1CCOCC2(C1)CN(c1ccccc1)C(=O)CO2` (stereo unspecified), the cytotoxicity at 70.5 h was -9.1%.

Consider `CC(C)CCN1C2(CCN(C(=O)C3(C)CC3)C2)c2ccccc2S1(=O)=O` (stereo unspecified), for which the cytotoxicity at 70.5 h was -9.44%.

On to `CS(=O)(=O)N1CCc2sc(C(=O)NCCc3ccccn3)cc21`, for which the cytotoxicity at 70.5 h was -10.9%.

As to `CN(C)C(=O)CNC(=O)c1cc2c(s1)CCN2S(C)(=O)=O`, the cytotoxicity at 70.5 h is -10.7%.

`COCCNC(=O)c1cc2c(s1)CCN2S(C)(=O)=O`: the cytotoxicity at 70.5 h is -6.66%.

Regarding `CC(C)CCN1C2(CCN(c3ncccn3)C2)c2ccccc2S1(=O)=O` (stereo unspecified), the cytotoxicity at 70.5 h was -11.6%.

Consider `Fc1cnc(N2CCO[C@H]3CN(CC4CCOC4)C[C@H]32)nc1` (stereo partly specified), for which the cytotoxicity at 70.5 h is 26.2%.

For the compound `Cc1ccc(CN2CC3(CCN(C(=O)Cc4ccc(Cl)cc4)C3)C2)o1`, the cytotoxicity at 70.5 h is -5.73%.

For `CC[C@@H]1N(Cc2ccccn2)CCC[C@]12CCC(=O)N2CCOC`, the cytotoxicity at 70.5 h was -5.82%.

Consider `CC(C)NC(=O)[C@]12COC[C@H]1CN(Cc1cnn(C)c1)C2`, for which the cytotoxicity at 70.5 h is -4.74%.

On to `COC(=O)CCC(=O)N1CCC2(CN(Cc3ccccc3F)C2)C1`, for which the cytotoxicity at 70.5 h is -7.6%.

In the case of `CN(C)CCO[C@@H]1CC[C@H]2[C@H]1OCCN2C(=O)c1ccccc1F`, the cytotoxicity at 70.5 h is -10.8%.

For `Cn1cccc1CN1CCc2ncnc(-c3cccnc3)c2CC1`, the cytotoxicity at 70.5 h was -4.34%.

With `CN(C)CCO[C@@H]1CC[C@H]2[C@H]1OCCN2C(=O)c1ccncc1`, the cytotoxicity at 70.5 h is -3.32%.

As to `Cc1cccc(C(=O)N2CCO[C@H]3[C@H](OCCN(C)C)CC[C@@H]32)n1`, the cytotoxicity at 70.5 h was -3.76%.

In the case of `CC1=N[C@@]2(CC[C@@H]3CN(C(=O)NC(C)C)C[C@@H]32)C(=O)N1CC1CC1`, the cytotoxicity at 70.5 h was determined as 1.82%.

In the case of `COCCN1C[C@@H](C)[C@@]2(COCCN(C(=O)c3ccoc3)C2)C1`, the cytotoxicity at 70.5 h came out at 1.95%.

Take `COCC(=O)N1CC[C@H]2OCC[C@@]2(c2nc(C)no2)C1`: the cytotoxicity at 70.5 h came out at 12.4%.

For the compound `CN(C)c1ncnc2c1CCN(c1cc(C(F)(F)F)ncn1)CC2`, the cytotoxicity at 70.5 h was -1.26%.

On to `CO[C@@H]1CCN(S(=O)(=O)c2cn(C)cn2)[C@H]1Cc1ccccc1`, for which the cytotoxicity at 70.5 h is -1.49%.

For the compound `CO[C@H]1CCN(S(=O)(=O)c2cn(C)cn2)[C@H]1Cc1ccncc1`, the cytotoxicity at 70.5 h is -0.309%.

On to `Cn1cc(CN2CCc3ncn(C)c3C2COCc2ccccc2)cn1` (stereo unspecified), for which the cytotoxicity at 70.5 h turned out to be 2.01%.

As to `Cn1cnc2c1C(COCc1cccnc1)N(Cc1ccccc1)CC2` (stereo unspecified), the cytotoxicity at 70.5 h turned out to be 2.08%.

On to `CCN1C(=O)[C@]2(CC[C@@H]3CN(C(=O)NCC(C)C)C[C@@H]32)N=C1C`, for which the cytotoxicity at 70.5 h was -2.72%.

`CC1=N[C@@]2(CC[C@@H]3CN(C(=O)NC(C)C)C[C@@H]32)C(=O)N1CC(C)C`: the cytotoxicity at 70.5 h was -3.41%.

Regarding `Cc1nc(COCc2cnc3n2CCN(C(=O)C2CC2)C3C)cs1` (stereo unspecified), the cytotoxicity at 70.5 h was determined as 11.4%.

For `Cn1cc(N2CC3(CCN(S(C)(=O)=O)C3)CC2=O)cn1` (stereo unspecified), the cytotoxicity at 70.5 h is 2.06%.

Regarding `CC(C)Oc1ncnc2c1CCN(Cc1cccs1)CC2`, the cytotoxicity at 70.5 h is -6.72%.

On to `COCC1CN(Cc2cc(C)on2)Cc2cn(C)nc21` (stereo unspecified), for which the cytotoxicity at 70.5 h was found to be 3.15%.

With `O=C1NC(c2ccccc2)=N[C@@]12CC[C@@H]1CN(Cc3ccco3)C[C@@H]12`, the cytotoxicity at 70.5 h was -5.19%.

Regarding `CN(C)C(=O)CN1CCC2(CCN(CC3CC3)CC2)C1=O`, the cytotoxicity at 70.5 h is 9.87%.

Take `c1coc(CN2CCC3(CC2)COC(COCC2CC2)C3)c1` (stereo unspecified): the cytotoxicity at 70.5 h worked out at 15.1%.

Take `CN1C(=O)CCCC12CCCN(Cc1cccs1)C2` (stereo unspecified): the cytotoxicity at 70.5 h was -6.68%.

Regarding `COCCN1CCC2(CC1)CN(C(=O)c1ccccc1)CCO2`, the cytotoxicity at 70.5 h was -5.3%.

For the compound `CN(C)CC(=O)N1CCCC2(CCN(c3ccccc3)C2=O)C1` (stereo unspecified), the cytotoxicity at 70.5 h is -9.67%.

With `N#Cc1ccc(C(=O)N2CC[C@H]3[C@H]2CCN3CC2CC2)cc1`, the cytotoxicity at 70.5 h is -10.6%.

In the case of `C[C@@H]1CN(CCc2ccccc2)C[C@]12CCN(CC(=O)N(C)C)C2=O`, the cytotoxicity at 70.5 h is -12.6%.

Consider `O=C(Cc1cccc(F)c1)N1C[C@H]2CN(Cc3ccccn3)C[C@H]2C1`, for which the cytotoxicity at 70.5 h is -6.98%.

Turning to `COCCC(=O)N1CCOCC2(CCN(Cc3cccs3)C2)C1` (stereo unspecified), the cytotoxicity at 70.5 h was -12.3%.

Consider `CC1c2ncc(CNC(=O)C3CC3)n2CCN1CC1CCC1` (stereo unspecified), for which the cytotoxicity at 70.5 h is -10.3%.

Turning to `O=C([C@H]1C[C@@H]2CCN(c3cccc(F)c3)C[C@H]2O1)N1CCCCO1`, the cytotoxicity at 70.5 h was -13.4%.

As for `CC[C@@H]1N(Cc2ccc(OC)cc2)CCC[C@]12CCC(=O)N2CCOC`, the cytotoxicity at 70.5 h was 16.8%.

Regarding `CS(=O)(=O)NC[C@@H]1OC[C@H]2CN(Cc3ccsc3)CC[C@H]21`, the cytotoxicity at 70.5 h is 18.6%.

With `CC[C@@H]1N(Cc2ccc(F)cc2)CCC[C@]12CCC(=O)N2CCOC`, the cytotoxicity at 70.5 h turned out to be 10.3%.

For the compound `Fc1cnc(N2CCO[C@H]3CN(CC4CCCCC4)C[C@H]32)nc1`, the cytotoxicity at 70.5 h was 17.9%.

In the case of `CN(C)CCO[C@@H]1CC[C@H]2[C@H]1OCCN2C(=O)c1ccc(F)cc1`, the cytotoxicity at 70.5 h is -1.79%.

With `CC[C@@H]1N(Cc2nccs2)CCC[C@]12CCC(=O)N2CCOC`, the cytotoxicity at 70.5 h is -2.16%.

For the compound `C[C@H]1CN(C)C[C@@]12COCCN(C(=O)Cc1ccccc1)C2`, the cytotoxicity at 70.5 h was 0.777%.

With `c1csc(CN2CCCn3cnc(COCC4CC4)c3C2)n1`, the cytotoxicity at 70.5 h is -0.793%.

In the case of `COc1ccc(C[C@H]2CN(c3cc(OC)ncn3)CC[C@@H]2OC)cc1`, the cytotoxicity at 70.5 h was found to be 4.78%.

Consider `O=C(NCC1CC1)[C@@H]1CCO[C@@H]2CCN(c3ncccn3)C[C@@H]21`, for which the cytotoxicity at 70.5 h was -3.18%.

As to `CC(=O)N1CC(=O)N(c2ccccc2)CC12CCN(Cc1nccs1)C2` (stereo unspecified), the cytotoxicity at 70.5 h is -3.72%.

For `CC(C)NC(=O)[C@H]1C[C@@H]2[C@@H](C1)OCCN2Cc1cnn(C)c1`, the cytotoxicity at 70.5 h is -4.89%.

For the compound `Cn1cc(CN2CCn3c(CNC(=O)c4cccn4C)cnc3C2)cn1`, the cytotoxicity at 70.5 h came to 4.31%.

As for `O=C(N[C@@H]1CN(Cc2ccccc2)C[C@@H]2CCCO[C@@H]21)C1CC1`, the cytotoxicity at 70.5 h is -1.76%.

Regarding `Cc1occc1C(=O)N1CCC[C@]2(C[C@@H](OCc3ccncc3)CO2)C1`, the cytotoxicity at 70.5 h was 6.49%.

For the compound `Cc1ccc(CN2CCC[C@]3(C(=O)O)CN(c4ncccn4)C[C@@H]3C2)o1`, the cytotoxicity at 70.5 h was determined as 0.612%.

For the compound `COc1ccc(C[C@H]2CN(c3nnc(C)s3)CC[C@@H]2OC)cc1`, the cytotoxicity at 70.5 h is -0.42%.

As to `COc1ccc(CN2C[C@H]3C[C@H](CN(C)C)O[C@H]3C2)cc1`, the cytotoxicity at 70.5 h is -5.86%.

As to `Cc1cnc(N2CC3(CCN(Cc4cccnc4)C3)C2)nc1`, the cytotoxicity at 70.5 h is -13.4%.

In the case of `COCCN1CCC2(CC1)CN(C(=O)Cc1cccnc1)CCO2`, the cytotoxicity at 70.5 h is -5.95%.

For `O=C1[C@H]2CN(Cc3ccccc3)C[C@H]2CN1CCN1CCCC1`, the cytotoxicity at 70.5 h was -8.49%.

Take `Fc1cccc(CN2C[C@@H]3CN(Cc4ccccn4)C[C@@H]3C2)c1`: the cytotoxicity at 70.5 h is -5.09%.

For the compound `O=C1[C@H]2CN(Cc3ccc(F)cc3)C[C@H]2CN1CCN1CCCC1`, the cytotoxicity at 70.5 h was 12.5%.

For `Cc1ccc(CN2Cc3ccnn3CC(C(=O)NCC3CC3)C2)o1` (stereo unspecified), the cytotoxicity at 70.5 h was -13.3%.

Turning to `CN(C)CCN1CCOCC12CCN(C(=O)C1CC1)CC2`, the cytotoxicity at 70.5 h was -10.1%.

In the case of `CN(C)CCOCc1nnc2n1CCN(Cc1ccoc1)CC2`, the cytotoxicity at 70.5 h was found to be 36.2%.

On to `CN(C)CCOCc1nnc2n1CCN(Cc1ccc(F)cc1)CC2`, for which the cytotoxicity at 70.5 h was 23.8%.

For the compound `c1cncc(-c2ncnc3c2CCN(Cc2ccsc2)CC3)c1`, the cytotoxicity at 70.5 h stood at 19.2%.

On to `CN(C)C(=O)COCC1CN(Cc2cccs2)Cc2ncn(C)c21` (stereo unspecified), for which the cytotoxicity at 70.5 h is 17.3%.

`CN(C)C(=O)COCC1CN(C2CCC2)Cc2ncn(C)c21` (stereo unspecified): the cytotoxicity at 70.5 h was 22.5%.

Take `c1cncc(-c2ncnc3c2CCN(Cc2cccs2)CC3)c1`: the cytotoxicity at 70.5 h was 16.4%.

For the compound `CN(C)C(=O)COCC1CN(Cc2ccoc2)Cc2ncn(C)c21` (stereo unspecified), the cytotoxicity at 70.5 h was -3.96%.

On to `c1cnc(N2CCO[C@H]3CN(CC4CC4)C[C@H]32)nc1`, for which the cytotoxicity at 70.5 h is -8.99%.

Consider `O=C(NCc1ccccn1)[C@]12COC[C@H]1CN(Cc1ccccc1F)C2`, for which the cytotoxicity at 70.5 h was -7.42%.

For the compound `O=C(c1cccnc1)N1CCN2C[C@H](Oc3cncnc3)C[C@H]2C1`, the cytotoxicity at 70.5 h was -1.31%.

Regarding `c1ccc(NCc2cn3c(n2)CN(Cc2cccs2)CC3)nc1`, the cytotoxicity at 70.5 h came out at 8.31%.

`c1cc(CN2CCCn3cnc(COCC4CC4)c3C2)ccn1`: the cytotoxicity at 70.5 h is -2.95%.

Consider `O=C(O)[C@]12CCCN(Cc3ccncc3)C[C@H]1CN(c1ncccn1)C2`, for which the cytotoxicity at 70.5 h was 2.52%.

For the compound `c1ccc(CN2CCc3ncnc(C4CCOC4)c3CC2)nc1` (stereo unspecified), the cytotoxicity at 70.5 h was -2.85%.

Regarding `Cc1cccc(CN2C[C@H](NS(C)(=O)=O)[C@@H]3OCCC[C@@H]32)n1`, the cytotoxicity at 70.5 h turned out to be 4.73%.

For the compound `c1coc(CN2CCCC3(COCCN(Cc4c[nH]nn4)C3)C2)c1` (stereo unspecified), the cytotoxicity at 70.5 h is -2.53%.

In the case of `CN(Cc1cccnc1)Cc1cn2c(n1)CN(C1CCOC1)CC2` (stereo unspecified), the cytotoxicity at 70.5 h is -6.14%.

In the case of `O=C(NCc1ccccn1)[C@]12COC[C@H]1CN(Cc1cccnc1)C2`, the cytotoxicity at 70.5 h was -7.77%.

Consider `Cc1ccc(CN2CC[C@@H]3[C@@H](CO[C@H]3CN3CCN(C)CC3)C2)s1`, for which the cytotoxicity at 70.5 h was found to be 14.3%.

For `Cc1ccc(CN2CC[C@@H]3[C@@H](CO[C@H]3CN3CCN(C)CC3)C2)cc1`, the cytotoxicity at 70.5 h is -0.515%.

Take `CN1CCN(Cc2cnc3n2CCN(Cc2cccnc2)CC3)CC1`: the cytotoxicity at 70.5 h was -1.41%.
